Measurements reported in ChEMBL document CHEMBL3046931, “Synthesis, antioxidant, and antitumor evaluation of certain new N-substituted-2-amino-1,3,4-thiadiazoles” (Med Chem Res, 2013).

What was measured:
[1] = Antioxidant activity assessed as inhibition of ABTS free radical formation at 1 mg/ml by spectroscopic analysis (reference value: 0%); type: functional
[2] = Pro-oxidant activity assessed as bleomycin-Fe3+ complex-induced DNA damage at 1 mg/ml after 1 hr; type: ADME
Ehrlich = assay: In vitro antitumor activity against Mus musculus (mouse) Ehrlich ascites cell assessed as dead tumor cells by trypan blue exclusion test; type: functional
[3] = Antioxidant activity assessed as inhibition of ABTS free radical formation at 2 mM by spectroscopic analysis (reference value: 0%); type: functional

Nc1nnc(SCC(=O)Nc2nncs2)s1
inhibition [1]: 20.7%
OD [2]: 0.101
ED25 (Ehrlich): 14.4 microg/cm3
ED50 (Ehrlich): 27 microg/cm3
ED100 (Ehrlich): 42.5 microg/cm3

CC1=NN(c2ccccc2)C(=O)/C1=N\Nc1nncs1
ED25 (Ehrlich): 10 microg/cm3
ED50 (Ehrlich): 21 microg/cm3
ED100 (Ehrlich): 42.1 microg/cm3

Cl/C(=N\c1nncs1)c1ccc(Cl)cc1
ED25 (Ehrlich): 6.9 microg/cm3
ED50 (Ehrlich): 13 microg/cm3
ED100 (Ehrlich): 6.9 microg/cm3

O=C(CNc1nncs1)Nc1nncs1
ED25 (Ehrlich): 9.4 microg/cm3
ED50 (Ehrlich): 18.9 microg/cm3
ED100 (Ehrlich): 39.1 microg/cm3

CN(C)/C=C(\C#N)C(=O)Nc1nncs1
inhibition [1]: 23.7%
OD [2]: 0.127
ED25 (Ehrlich): 7.8 microg/cm3
ED50 (Ehrlich): 14.1 microg/cm3
ED100 (Ehrlich): 26 microg/cm3

N#CSCC(=O)Nc1nncs1
inhibition [1]: 25.7%
OD [2]: 0.099

Clc1ccc(-c2nnnn2-c2nncs2)cc1
ED25 (Ehrlich): 12 microg/cm3
ED50 (Ehrlich): 23 microg/cm3
ED100 (Ehrlich): 41 microg/cm3

c1nnc(/N=N/Nc2nncs2)s1
inhibition [1]: 24.5%
OD [2]: 0.103
ED25 (Ehrlich): 19.3 microg/cm3
ED50 (Ehrlich): 33 microg/cm3
ED100 (Ehrlich): 61.5 microg/cm3

Nc1n[nH]cc1C(=O)Nc1nncs1
inhibition [1]: 18.9%
OD [2]: 0.102

Clc1ccc(CNc2nncs2)cc1
inhibition [1]: 0.354%
OD [2]: 0.108

O=C1O[C@H]([C@@H](O)CO)C(O)=C1O [ASCORBIC ACID]
inhibition [3]: 88.5%
OD [2]: 0.098

O=c1[nH]cc(F)c(=O)[nH]1 [FLUOROURACIL]
ED25 (Ehrlich): 40 microg/cm3
ED50 (Ehrlich): 63 microg/cm3
ED100 (Ehrlich): 97 microg/cm3

Clc1ccc(C/N=c2/scnn2Cc2ccc(Cl)cc2)cc1
inhibition [1]: 38%
OD [2]: 0.121
ED25 (Ehrlich): 7.4 microg/cm3
ED50 (Ehrlich): 16 microg/cm3
ED100 (Ehrlich): 29 microg/cm3

CC1=NN(c2ccccc2)C(=O)/C1=C/c1ccc(Nc2nncs2)cc1
inhibition [1]: 41.6%
OD [2]: 0.105
ED25 (Ehrlich): 8.8 microg/cm3
ED50 (Ehrlich): 17 microg/cm3
ED100 (Ehrlich): 31 microg/cm3

N#CCC(=O)Nc1nncs1
inhibition [1]: 70.9%
OD [2]: 0.08

Cc1cc(C)c2c(NN/C=C(\C#N)C(=O)Nc3nncs3)n[nH]c2n1
inhibition [1]: 51.8%
OD [2]: 0.109
ED25 (Ehrlich): 5 microg/cm3
ED50 (Ehrlich): 10.2 microg/cm3
ED100 (Ehrlich): 19 microg/cm3

O=Cc1ccc(Nc2nncs2)cc1
inhibition [1]: 26.5%
OD [2]: 0.1
ED25 (Ehrlich): 8.7 microg/cm3
ED50 (Ehrlich): 17.9 microg/cm3
ED100 (Ehrlich): 38.3 microg/cm3

Nc1nncs1
inhibition [1]: 28.5%
OD [2]: 0.09
ED25 (Ehrlich): 37 microg/cm3
ED50 (Ehrlich): 56 microg/cm3
ED100 (Ehrlich): 92.9 microg/cm3

O=C(Nc1nncs1)c1ccc(Cl)cc1
inhibition [1]: 26.5%
OD [2]: 0.1
ED25 (Ehrlich): 11 microg/cm3
ED50 (Ehrlich): 24 microg/cm3
ED100 (Ehrlich): 52 microg/cm3

O=C(CN1CCN(CC(=O)Nc2nncs2)CC1)Nc1nncs1
ED25 (Ehrlich): 8.7 microg/cm3
ED50 (Ehrlich): 18 microg/cm3
ED100 (Ehrlich): 37 microg/cm3

Cc1cc(C)c2c(n1)nn1c(N)c(C(=O)Nc3nncs3)nnc21
ED25 (Ehrlich): 25 microg/cm3
ED50 (Ehrlich): 48.2 microg/cm3
ED100 (Ehrlich): 80.7 microg/cm3

N#C/C(=C\c1ccc(N2CCCCC2)cc1)C(=O)Nc1nncs1
inhibition [1]: 28.7%
OD [2]: 0.114

O=C(CCl)Nc1nncs1
inhibition [1]: 27.1%
OD [2]: 0.102
ED25 (Ehrlich): 7.8 microg/cm3
ED50 (Ehrlich): 16 microg/cm3
ED100 (Ehrlich): 28 microg/cm3

O=C(CN1CCN(c2ccccc2)CC1)Nc1nncs1
inhibition [1]: 25.7%
OD [2]: 0.096
ED25 (Ehrlich): 13 microg/cm3
ED50 (Ehrlich): 24 microg/cm3
ED100 (Ehrlich): 46.1 microg/cm3
